The source of these data is a melting point compilation (Tetko et al.; mined from patent text by program, amines drawn as free bases though some values may be those of a salt).

Molecules are shown by their SMILES.

Compound `CC(=O)NC(CSCc1ccc(-c2nc(-c3ccccc3)cc(-c3ccccc3)n2)cc1)C(=O)O` (centres undefined) showed a melting point of 223 to 226 °C.

`OCc1conc1-c1ccc(Cl)c(F)c1` displayed a melting point of 124 to 125 °C.

Compound `COc1cc(Nc2c(C#N)cnc3cc(-c4ccc(CN5CCN(C)CC5)s4)ccc23)c(Cl)cc1Cl` showed a melting point of 206 to 208 °C.

Regarding `Clc1ccc(-n2nc3c(c2Br)CSCC3)cc1`, the melting point was 144 to 145 °C. To `CCc1cn(C2CC(O)C(CNCc3ccccc3)O2)c(=O)[nH]c1=O` (centres undefined) belongs 121 to 124 °C.

In turn, `COc1ccc(CC(=O)Nc2cc(Cl)ccc2O)cc1OC1CCCC1` yielded a melting point of 151 to 152 °C.

Regarding `Cc1c(C(=O)Nc2ccc(OCCO)cc2)nnn1Cc1ccc(Cl)c(Cl)c1`, the melting point worked out at 140 °C. `CCC1CCCN(C(=O)C2Cc3ccccc3N2c2ccc(=O)n(C)n2)C1` (centres undefined) returned a melting point of 150 to 154 °C. For the compound `Cc1nc(N)c2nc(C)n(CCCCCS(C)(=O)=O)c2c1C`, the melting point was 199 to 200 °C. `COc1cc(N)ccc1S(=O)(=O)n1c(=O)n(C2CCCCC2)c2cc(Cl)ccc21` had a melting point of 211 °C.

`CON=C(C)c1ccccc1NC(C(N)=O)c1c(Cl)cccc1Cl` (centres undefined) showed a melting point of 206 °C. Compound `CCOC(=O)C(=NO)C(=O)c1ccc(Br)cc1` registered a melting point of 149 °C. For `Nc1ccccc1SCC(C(=O)O)c1ccc(C(F)(F)F)cc1` (centres undefined), the melting point came out at 138 °C. For `CCOc1ccc([C@H]2O[C@H](CC(=O)O)C(=O)N(CC(C)(C)C)c3ccc(Cl)cc32)c(OC)c1` (relative stereo) the value was 230 to 232 °C. For the compound `N=c1[nH]c2ccc(Cl)cc2c2nc(-c3ccco3)nn12`, the melting point was 131 to 133 °C. In turn, `c1ccc2c(c1)nc(Nc1ccc3cc[nH]c3c1)c1nc(C3CCCC3)[nH]c12` came in with a melting point of 260 to 261 °C.

`COc1c(C#N)c(OC)c(OC)c(OC)c1OC` yielded a melting point of 64 °C. On to `COc1c(C)c(C)c(O)c(C)c1CN(C)CCOc1cc(C)ccc1C(C)C`, for which the melting point was in the range of 75 to 77 °C. In the case of `CCN1CC(O)CC1=O` (centres undefined), the melting point was 53 to 54 °C.

Take `CC(C)[C@]1(c2ccccc2OCC#CCCl)Sc2ccccc2N(C)C1=O`: the melting point turned out to be 136 °C.

In turn, `CCCC(=O)Nc1cc(N(CCO)CCO)ccc1N=Nc1snc(C)c1C#N` displayed a melting point of 175 to 178 °C. For `CC1(C)OC[C@H](COn2cnc3c(Cl)nc(NC=O)nc32)O1` the value was 145 to 148 °C. In turn, `CCC(C)c1ccc(NC(=O)c2sccc2S(=O)(=O)Nc2onc(C)c2Br)cc1` (centres undefined) displayed a melting point of 205 to 208 °C.

Compound `CCOC(=O)CNC(=O)c1cn2nc(Cl)ccc2n1` had a melting point of 190 to 191 °C.

`CCCCn1c(=O)n(CCN2CCN(c3ccccc3OC)CC2)c(=O)c2sccc21`: the melting point lay in the range of 139 to 140 °C. The compound `O=C1CCCc2ccc([N+](=O)[O-])cc2N1` gave a melting point of 224 to 226 °C.

Turning to `CNC(=S)c1ccncc1C1c2ccccc2CC1(C)C` (centres undefined), the melting point was in the range of 187 to 189 °C.

`CCCc1cc(Cl)c2oc(Cc3ccc(Cl)cc3)c(C)c2c1O` had a melting point of 76 to 77 °C. `Oc1cc2c(cc1O)OCC(c1cccc(F)c1)C2` (centres undefined) returned a melting point of 121 to 123 °C. For `C#CCc1c(C)nc2c(OCc3ccccc3OC)cccn12` the value was 134 to 136 °C; for `CC(C)(Oc1ccc(C#N)cc1)C(O)Cc1cnccn1` (centres undefined), 94 to 95 °C. `Cc1cc(C)cc(OC(=O)C(c2ccccc2)N2CCN(C3CCN(C(=O)c4cc(C(F)(F)F)cc(C(F)(F)F)c4)C(Cc4ccccc4)C3)CC2)c1` (centres undefined) came in with a melting point of 88.1 °C. `CCOC(=O)C(C#N)(CCCN(C)CCc1ccc(C(=O)OC)cc1)c1ccc(OC)c(OC)c1` (centres undefined) showed a melting point of 75 to 77 °C. For `CC(=O)Oc1c(C)ccc2c1N=CC1CCCN1C2=O` (centres undefined), the melting point is 142 to 145 °C. Turning to `CC1=C(C(=O)OCCN(C)c2ccccc2)C(c2ccccc2C(F)(F)F)c2c(ccnc2OC(C)C)N1` (centres undefined), the melting point lay in the range of 114 to 116 °C. `O=C(O)c1ccc(-c2nc(-c3ccc(Br)cc3)cs2)cc1`: the melting point is greater than 300 °C. Take `C[C@@H]1[C@H](NC(=O)C(=O)c2csc(N)n2)C(=O)N1S(=O)(=O)O`: the melting point is greater than 300 °C. In turn, `Cc1ccc(C#Cc2cccc(N)c2)cc1` showed a melting point of 88 °C. In turn, `CC1(C)CCc2ccccc2C1c1cncnc1SCF` (centres undefined) showed a melting point of 126 to 128 °C. As to `OC(Cc1ccc(Cl)cc1Cl)(Cn1cncn1)c1ccc(-c2ccccc2)cc1` (centres undefined), the melting point worked out at 124 °C. To `COC(=O)c1ccc(O)nc1C1=NC(C)(C(C)C)C(=O)N1` (centres undefined) belongs 186 to 191 °C. On to `O=C(NC(Cc1ccc(OCc2ccc(Cl)cc2)cc1)C(=O)O)c1cc2ccc(-c3ccc(Cl)cc3)cc2o1` (centres undefined), for which the melting point came to 195 °C. The compound `COc1ccc(N2CCN(c3cccc(C)c3)CC2)nn1` yielded a melting point of 137 °C. In turn, `O=[N+]([O-])c1cccnc1NCc1ccccc1` yielded a melting point of 81 to 82 °C. With `CCCc1c(C(=O)O)cnc(C(F)(F)F)c1C(=O)O`, the melting point came to 236 °C. For `CN(C(=O)C1CCn2cccc21)c1ccccc1` (centres undefined), the melting point was 112 °C. `Cc1cccc(C(=O)NCN2CCN(c3cccc(C#N)c3)CC2)c1` came in with a melting point of 59 to 61 °C.

In the case of `Cc1ccc(C(=O)C2=C(O)C(=O)N(c3ccc(C)nn3)C2c2ccc(OCCN(C)C)cc2)cc1` (centres undefined), the melting point was in the range of 263 to 266 °C.

In the case of `Cc1ccc(C(=O)NC(NC(=S)Nc2ccccc2C)C(F)(F)F)cc1` (centres undefined), the melting point lay within 210 to 211 °C. Compound `Cc1ccc2c(Br)csc2c1` displayed a melting point of 51 to 53 °C. As to `CCCC(=O)OC(C)OC(=O)NC1(C(=O)O)CC1` (centres undefined), the melting point lay within 90.4 to 93.4 °C.

With `C[Si](C)(C)CCCOC1CCN(c2ccc([N+](=O)[O-])cc2)C1` (centres undefined), the melting point came to 68 °C. As for `C(=Cc1ccc(-c2cnc(CSCCOc3ccccc3)o2)cc1)CN1CCCC1`, the melting point was 73 to 75 °C.

`CCOC(=O)c1c2n(c3cc(N4CCNCC4)c(F)cc3c1=O)C(C)S2` (centres undefined) had a melting point of 224 °C. In turn, `Cc1cccc2nc(NC(=N)N)[nH]c12` displayed a melting point greater than 260 °C. On to `CCOC(=O)COc1ccc2nc(CC)cc(OCc3ccc(-c4ccccc4-c4nnn(C(c5ccccc5)(c5ccccc5)c5ccccc5)n4)cc3)c2n1`, for which the melting point fell in the range of 146 to 150 °C. As to `CCOC(=O)c1cn2c(cnc3ccccc32)n1`, the melting point was in the range of 184 to 187 °C. For `CN(C)c1ccc(C2(CN)CCCC2)cc1` the value was 87 to 89 °C. Consider `N=C(Nc1cccc(NC(=O)/C=C/c2cccc(Cl)c2)c1)c1ccccc1`, for which the melting point was in the range of 260 to 262 °C. In turn, `C#CCn1nc(-c2ccc(F)cc2)c(-c2ccc(S(C)(=O)=O)cc2)cc1=O` showed a melting point of 168 to 169 °C.

Compound `Cc1nnc(-c2ccc3occ(-c4cnn(Cc5ccccc5)c4)c3n2)o1` showed a melting point of 194 to 195 °C. For `COC(=O)c1cc(OCCOc2cccc3ccccc23)cc(OCCOc2cccc3ccccc23)c1`, the melting point is 132 to 137 °C.

As to `Nc1ccc(CCc2ccc(OCc3ccccc3)c(OCc3ccccc3)c2)cc1`, the melting point fell in the range of 97 to 101 °C. For the compound `CN(c1cc2c3c(c1)CCCC3(C)CCC2)c1ncc(C(=O)O)cn1`, the melting point was greater than 300 °C.

The compound `Cn1cc(C2=C(c3cn(CCCNS(=O)(=O)c4ccccc4)c4ccccc34)C(=O)NC2=O)c2ccccc21` came in with a melting point of 125 to 128 °C. Compound `BrCc1cc(CBr)cc(CBr)c1` showed a melting point of 95.5 to 97.5 °C. `O=C1CC(c2cccc(Cl)c2)c2cc(C(c3ccc(Cl)cc3)n3ccnc3)cc3c2N1CCC3` (centres undefined) yielded a melting point of 93.6 °C. In turn, `CC1(C)c2ccccc2C(C)(C)C1(CC#N)SN=O` had a melting point of 67 to 69 °C. To `CCCCNC(=O)C(=O)[C@H](CC(C)C)NC(=O)[C@@H](NS(=O)(=O)c1ccc(F)cc1)C(C)C` belongs 108 to 110 °C. The compound `Clc1cc(Cl)c2oc(Cl)nc2c1` had a melting point of 140 to 142 °C.

In turn, `CCOC(=O)c1snc(-c2ccc(F)cc2)c1N` registered a melting point of 137 to 139 °C. For `CCN1CCCC(N2C(=O)c3ccc(N)cc3C2=O)C1` (centres undefined) the value was greater than 300 °C. `CC(=O)OCc1csc(Nc2ccc(Br)cn2)n1` gave a melting point of 201 to 202 °C.

`Nc1cc2[nH]c(=O)[nH]c2c2ccccc12` yielded a melting point of 295 to 296 °C.

With `COc1ccc(-c2nc(OCC(F)(F)F)nn2-c2ccc(OC)nc2)cc1`, the melting point was 63 to 64 °C. In turn, `CCCCN(CCCC)c1ccc(C=CC=CC2=C(C#N)C(=C(C#N)C#N)OC2(C)C(F)(F)F)c(OC)c1` (centres undefined) returned a melting point of 169 to 170 °C. To `O=[N+]([O-])c1oc2cc3c(cc2c1-c1ccccc1)OCO3` belongs 180 to 183 °C. Turning to `O=C(C1CC2(CCN1)OCCO2)N1CCCC1` (centres undefined), the melting point was 72.5 to 74.5 °C.

For the compound `CN(C(=O)c1nn(-c2ccc(Cl)cc2Cl)c(-c2ccc(Cl)cc2)c1O)N1CCCCC1`, the melting point is 118 °C. To `Nc1ncc(C#Cc2ccccc2)c(NCCOCCO)n1` belongs 128 to 129 °C; to `O=S(=O)(CCNc1ccccc1)NCCCOc1cccc(CN2CCCCC2)c1`, 112 to 115 °C; to `COC(=O)Nc1cn2cc(S(=O)(=O)c3ccccc3)ccc2n1`, 300 °C. `COc1cc2c(cc1OC(=O)c1ccccc1)C1Cc3c(Cl)cc(OC)c(OC(=O)c4ccccc4)c3CN1CC2` (centres undefined) showed a melting point of 152 to 154 °C.

In turn, `Cc1nc2c([N+](=O)[O-])cc3nc(O)c(O)nc3c2nc1C` came in with a melting point greater than 300 °C.

Compound `COc1ccc(CNc2n[nH]c(N)c2C#N)cc1` showed a melting point of 148 to 149 °C. Take `CC(C)(C)OC(=O)Cn1cc(C[C@@H](N)C(=O)O)c2ccccc21`: the melting point was 260 °C. In the case of `CCCCCCCCNC(=O)Nc1nc2nc(NCCCN3CCN(C)CC3)ncc2cc1-c1c(Cl)cccc1Cl`, the melting point lay in the range of 54.5 to 57.5 °C. Consider `COc1ccc(N2CCN(C(=O)c3cn4cc(Cl)ccc4n3)CC2)cc1`, for which the melting point was 180 to 181 °C.

`Cc1nc(S(=O)Cc2ccc(Cl)cc2)nc2c1CCCC2` (centres undefined) showed a melting point of 127 °C.

A word on the melting point: it is the temperature, or range, at which the solid turns liquid.
